Data on nine compounds can be found in PubChem BioAssay (NCI).

Each structure is given as a SMILES string. Where “and” joins values, the source holds several entries; their conditions need not be identical. Identical values can stand only once.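 1) Cells in 96-well plates. 2) Compound, 48 h, 5 concentrations. 3) Linear interpolation between surrounding doses. 4) Unreached endpoint = highest concentration. Abbreviation: GI50, concentration required for 50% inhibition of growth. The concentration for full growth arrest is given as TGI.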

Holding throughout (assay): inhibition of tumour cell growth, NCI panel, 48 h
The test system of test [1] is NCI-H23 lung.
In test [2] the test system is HCC-2998 colon.
In test [3] the test system is OVCAR-3 ovarian.
In test [4] the test system is 786-0 renal.
For test [5], the system named is HT29 colon.
Test [6] has as its system MOLT-4 leukemia.
Test [7] concerns SF-295 CNS.
Test [8] has as its system U251 CNS.
In test [9] the test system is NCI-H522 lung.
Test [10] has as its system SNB-75 CNS.

As for `O=C1CCc2c(sc3[nH]c(=S)n(Cc4ccc(Cl)cc4)c(=O)c23)C1`, the GI50 in test [1] was 0.345 µM; in [2] it was 0.577 µM; in test [3], 385 nM; in [4], 1.23 µM; in test [5], 3.27 µM; in test [6], 1.21 µM. Also, the GI50 in test [7] is 0.863 µM; in [8] it was 0.377 µM; in test [9] it was 0.34 µM; in [10], 0.387 µM. The TGI in [1] is 2.68 µM; in test [2] it was 2.3 µM; in test [3] it was > 55.6 µM; in test [4], > 100 µM; in test [5] it was > 100 µM; in [6], 17.1 µM. Further, the TGI in test [7] was 4.68 µM; in test [8], 18 µM; in test [9] it was 1.68 µM; in test [10], > 81.4 µM.
As for `CSc1nc(SC)c2c(CO)c(Br)n(Cc3ccccc3)c2n1`, the TGI in test [1] is > 100 µM; in [2], > 100 µM; in [3] it was > 100 µM; in test [4] it was 37.6 µM; in [5], > 100 µM; in [6], > 100 µM. Besides, the TGI in test [7] was determined as 40.9 µM; in test [8], 26.3 µM; in [9], 68.8 µM; in test [10], 29.9 µM.
In the case of `C=C1CC2(OC1=O)C(=O)Nc1ccccc12` (stereo not given), the GI50 is 6.34 µM in test [1]; 9.35 µM in [2]; 1110 nM in test [3]; 2.39 µM in [4]; 3.03 µM in test [5]; 2 µM in test [6]. The GI50 in [7] was 28.9 µM; in test [8], 13.1 µM; in [9] it was 0.542 µM; in test [10], 11 µM. Besides, the TGI was 23.1 µM in test [1]; 23.2 µM in [2]; 2.77 µM in test [3]; 6.64 µM in test [4]; 11 µM in test [5]; 5.98 µM in test [6]. Also, the TGI in [7] was > 100 µM; in [8] it was 30.5 µM; in test [9], 2.03 µM; in test [10], 28.1 µM.
Take `CC(C)(c1ccccc1)c1ccc(OC#N)cc1`: the TGI in [1], in test [2], in [3], in test [4], in test [5] and in test [6] was > 100 µM throughout. The TGI was > 100 µM in test [7], > 100 µM in [8], 24.4 µM in test [9] and > 74.4 µM in test [10].
Take `COc1cc(Nc2ncc(F)c(Nc3ccc4c(n3)N(COP(=O)(O)O)C(=O)C(C)(C)O4)n2)cc(OC)c1OC`: the GI50 in test [1] was 2.51 µM and 2.57 µM; in [2], 16.4 µM; in test [3], 2660 nM and 2710 nM; in [4], 1.32 µM and 0.858 µM; in test [5] it was 1.66 µM; in test [6], 3.54 µM and 3.05 µM. Further, the GI50 is 1.39 µM and 1.17 µM in test [7]; 7.55 µM and 2 µM in test [8]; 1.53 µM and 1.24 µM in test [9]; 0.319 µM in test [10]. For the same compound, the TGI in test [1] was 22.7 µM and > 10 µM; in test [2], > 100 µM; in [3] it was 33.6 µM and > 10 µM; in [4], 6.53 µM and 2.86 µM; in test [5], 10.7 µM and > 10 µM; in test [6] it was > 62 µM. For the same compound, the TGI was 7.55 µM and 8.7 µM in [7]; > 100 µM in test [8]; 7.02 µM and 7.1 µM in [9]; 1.52 µM in test [10].
As to `Cn1cc2ccccc2c1-c1nc(F)nc(OCC(=O)[C@H]2CCC3[C@@H]4CCC5=CC(=O)CC[C@]5(C)C4[C@@H](O)C[C@@]32C)n1` (stereo not given in full), the TGI worked out at 16.5 µM in test [1]; 48.4 µM in [2]; 33.2 µM in [3]; 30.5 µM in [4]; 42.7 µM in test [5]; 54.3 µM in test [6]. Also, the TGI in [7] worked out at 44.4 µM; in [8], 36 µM; in test [9] it was 31.2 µM; in test [10], 35.2 µM.
On to `CCN(CC)c1ccc(C(=O)c2ccc(N(CC)CC)cc2)cc1`, for which the GI50 in test [1] was 0.74 µM; in test [2], 1.26 µM; in test [3], 264 nM; in [4] it was 0.668 µM; in test [5], 0.359 µM; in test [6], 0.718 µM. Moreover, the GI50 is 0.289 µM in test [7], 0.504 µM in [8], 0.278 µM in test [9] and 0.458 µM in test [10]. Besides, the TGI is > 100 µM in test [1]; 35.4 µM in test [2]; 0.706 µM in [3]; 28.3 µM in test [4]; 3.78 µM in test [5]; 19.8 µM in [6]. Moreover, the TGI in [7] is 4.17 µM; in test [8], 23.2 µM; in test [9] it was 1.67 µM; in test [10], > 83.6 µM.
Consider `CC1OC(n2cc(F)c(=O)[nH]c2=O)C=CC1=O` (stereo not given), for which the TGI in test [1] was > 100 µM; in [2], 43.8 µM; in test [3], 29.6 µM; in test [4], 29.4 µM; in test [5], 49.3 µM; in test [6] it was 69.3 µM. Also, the TGI in test [7] came to 31 µM; in [8], 27.9 µM; in [9], 23.2 µM; in test [10], 32.5 µM.
Take `COC(=O)[C@@H](C)C[C@H](Cc1ccccc1)NC(=O)c1csc([C@@H](C[C@H](C(C)C)N(C)C(=O)[C@@H](NC(=O)[C@H]2CCCCN2C)C2CC2)OC(C)=O)n1`: the GI50 in test [1] was 0.000532 µM and 0.00165 µM; in test [2], 0.000338 µM and 0.00165 µM; in [3] it was 0.0497 nM and < 1.65 nM; in test [4], 0.000456 µM and 0.00165 µM; in [5] it was 0.000264 µM and 0.00165 µM; in test [6], 0.00464 µM and 0.00165 µM. Moreover, the GI50 in [7] is 0.000345 µM; in [8] it was 0.000457 µM and 0.00165 µM; in test [9] it was 0.000247 µM and < 0.00165 µM; in test [10] it was 0.000383 µM and 0.00165 µM. For the same compound, the TGI in test [1] was > 16.5 µM; in test [2] it was > 16.5 µM; in test [3], 0.00379 µM and < 0.00165 µM; in [4], > 16.5 µM; in test [5], 0.00135 µM and 0.00208 µM; in test [6], > 16.5 µM. In addition, the TGI in test [7] is 0.00369 µM; in test [8], > 16.5 µM; in test [9], 0.000988 µM and < 0.00165 µM; in [10], > 16.5 µM.
